ChEMBL document CHEMBL1139958, “Synthesis and biological evaluation of analogues of the anti-tumor alkaloid naamidine A” (Bioorg Med Chem Lett, 2007)

Test: Inhibition IL3-dependent mitogenesis of mouse BaF/ERX cells by [3H]thymidine incorporation assay
Type: functional, cell-based
In the case of COc1ccc(-c2nc(NC3=NC(=O)N(C)C3=O)sc2-c2ccc(OC)cc2)cc1, the IC50 is reported as 10 µM.
For COc1ccc(Cc2[nH]c(=N)n(C)c2Cc2ccc(O)cc2)cc1 [NAAMINE A], the IC50 was 75 µM.

Test: Inhibition EGF-dependent mitogenesis of mouse BaF/ERX cells by [3H]thymidine incorporation assay
Type: functional, cell-based
In the case of CN1C(=O)N=C(Nc2nc(-c3ccccc3)c(-c3ccccc3)s2)C1=O, the IC50 is reported as > 75 µM.
For COc1ccc(-c2nc(NC(=O)NCc3ccccc3)sc2-c2ccc(OC)cc2)cc1, the IC50 was > 75 µM.
COc1ccc(-c2nc(NC(=O)[C@H](C)N)sc2-c2ccc(OC)cc2)cc1 gave an IC50 of 12 µM.
Molecule CN1C(=O)N=C(Nc2ncc(Cc3ccc(O)cc3)n2C)C1=O has an IC50 of 4 µM.
For COc1ccc(Cc2nc(N)sc2Cc2ccc(O)cc2)cc1, the IC50 was 18 µM.
For Nc1nc(-c2ccccc2)c(-c2ccccc2)s1, the IC50 was > 75 µM.
In the case of Nc1nc(-c2ccc(O)cc2)c(-c2ccc(O)cc2)s1, the IC50 is reported as > 75 µM.
Work on Nc1nc(-c2ccccc2)c(Cc2ccc(O)cc2)s1 yielded an IC50 of 50 µM.
COc1ccc(Cc2nc(NC3=NC(=O)N(C)C3=O)sc2Cc2ccc(O)cc2)cc1 gave an IC50 of 10 µM.
For CN1C(=O)N=C(Nc2nc(Cc3ccc(OCc4ccccc4)cc3)c(Cc3ccc(O)cc3)s2)C1=O, the IC50 was > 75 µM.
CN1C(=O)N=C(Nc2nc(-c3ccccc3)c(Cc3ccc(O)cc3)s2)C1=O showed an IC50 of 25 µM.
With COc1ccc(Cc2nc(NC3=NC(=O)N(C)C3=O)n(C)c2Cc2ccc(O)cc2)cc1 the IC50 was 3 µM.
Molecule CN1C(=O)N=C(Nc2nc(-c3ccc(Cl)cc3)c(Cc3ccc(O)cc3)s2)C1=O has an IC50 of 15 µM.
For COc1ccc(-c2nc(N)sc2-c2ccc(OC)cc2)cc1, the IC50 was > 75 µM.
With COc1ccc(-c2nc(NC3=NC(=O)N(C)C3=O)sc2-c2ccc(OC)cc2)cc1 the IC50 was 50 µM.
With CN1C(=O)N=C(Nc2nc(-c3ccc(O)cc3)c(-c3ccc(O)cc3)s2)C1=O the IC50 was 5 µM.
Molecule COc1ccc(Cc2[nH]c(=N)n(C)c2Cc2ccc(O)cc2)cc1 [NAAMINE A] has an IC50 of 75 µM.
